PubChem BioAssay (NCI)
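In this assay, cells in 96-well plates receive the compound at five concentrations for 48 hours. Endpoints are linearly interpolated between the surrounding concentrations. GI50 marks 50% less growth. The concentration for full growth arrest is given as TGI.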

Legend:
Test in all cases: NCI anticancer screen, dose series, 48 h
HCC-2998 colon = tested on: HCC-2998 colon
SK-OV-3 ovarian = tested on: SK-OV-3 ovarian
TK-10 renal = tested on: TK-10 renal
A549 NSCLC = tested on: A549 NSCLC
HT29 colon = tested on: HT29 colon
SF-268 CNS = tested on: SF-268 CNS
SK-MEL-28 melanoma = tested on: SK-MEL-28 melanoma
LOX IMVI melanoma = tested on: LOX IMVI melanoma
CAKI-1 renal = tested on: CAKI-1 renal
UACC-62 melanoma = tested on: UACC-62 melanoma
PC-3 prostate = tested on: PC-3 prostate
NCI-H522 lung = tested on: NCI-H522 lung
786-0 renal = tested on: 786-0 renal
RPMI-8226 leukemia = tested on: RPMI-8226 leukemia
MDA-MB-468 breast = tested on: MDA-MB-468 breast
KM12 colon = tested on: KM12 colon
T-47D breast = tested on: T-47D breast
SF-295 CNS = tested on: SF-295 CNS
MCF7 breast = tested on: MCF7 breast
NCI-H460 lung = tested on: NCI-H460 lung
SK-MEL-2 melanoma = tested on: SK-MEL-2 melanoma
HOP-92 NSCLC = tested on: HOP-92 NSCLC
BT-549 breast = tested on: BT-549 breast
DU-145 prostate = tested on: DU-145 prostate
SK-MEL-5 melanoma = tested on: SK-MEL-5 melanoma
OVCAR-8 ovarian = tested on: OVCAR-8 ovarian
SN12C renal = tested on: SN12C renal
IGROV1 ovarian = tested on: IGROV1 ovarian
OVCAR-5 ovarian = tested on: OVCAR-5 ovarian
K-562 leukemia = tested on: K-562 leukemia
SNB-75 CNS = tested on: SNB-75 CNS
UO-31 renal = tested on: UO-31 renal
SR leukemia = tested on: SR leukemia
HL-60(TB) leukemia = tested on: HL-60(TB) leukemia
NCI/ADR-RES ovarian = tested on: NCI/ADR-RES ovarian
M14 melanoma = tested on: M14 melanoma
U251 CNS = tested on: U251 CNS
MDA-MB-435 = tested on: MDA-MB-435
SNB-19 CNS = tested on: SNB-19 CNS
MOLT-4 leukemia = tested on: MOLT-4 leukemia
ACHN renal = tested on: ACHN renal
SW-620 colon = tested on: SW-620 colon
NCI-H226 lung = tested on: NCI-H226 lung
OVCAR-3 ovarian = tested on: OVCAR-3 ovarian
MALME-3M melanoma = tested on: MALME-3M melanoma
UACC-257 melanoma = tested on: UACC-257 melanoma
A498 renal = tested on: A498 renal
COLO 205 colon = tested on: COLO 205 colon
MDA-MB-231 breast = tested on: MDA-MB-231 breast
NCI-H23 lung = tested on: NCI-H23 lung
HCT-116 colon = tested on: HCT-116 colon
HCT-15 colon = tested on: HCT-15 colon
CCRF-CEM leukemia = tested on: CCRF-CEM leukemia
OVCAR-4 ovarian = tested on: OVCAR-4 ovarian
HOP-62 NSCLC = tested on: HOP-62 NSCLC
HS 578T breast = tested on: HS 578T breast
SF-539 CNS = tested on: SF-539 CNS
EKVX NSCLC = tested on: EKVX NSCLC
RXF 393 renal = tested on: RXF 393 renal

## C=CCn1c(SCC(=O)Nc2ccc(C(=O)/C=C/c3ccccc3)cc2)nnc1-c1c[nH]c2ccccc12
HCC-2998 colon
  GI50: 2.69 µM
  TGI: 7.56 µM
SK-OV-3 ovarian
  GI50: 14.7 µM
  TGI: 32.4 µM
TK-10 renal
  GI50: > 100 µM
  TGI: > 100 µM
A549 NSCLC
  GI50: 12.1 µM
  TGI: 51.9 µM
HT29 colon
  GI50: 3.27 µM
  TGI: 12.3 µM
SF-268 CNS
  GI50: 10.9 µM
  TGI: > 100 µM
SK-MEL-28 melanoma
  GI50: 13.5 µM
  TGI: 27.9 µM
LOX IMVI melanoma
  GI50: 2.14 µM
  TGI: 5.34 µM
CAKI-1 renal
  GI50: 12.1 µM
  TGI: > 100 µM
UACC-62 melanoma
  GI50: 9.27 µM
  TGI: > 100 µM
PC-3 prostate
  GI50: 5.25 µM
  TGI: 64.4 µM
NCI-H522 lung
  GI50: 12.4 µM
  TGI: 80.3 µM
786-0 renal
  GI50: 20.7 µM
  TGI: 44 µM
RPMI-8226 leukemia
  GI50: 2.36 µM
  TGI: 7.39 µM
MDA-MB-468 breast
  GI50: 4.41 µM
  TGI: 17.4 µM
KM12 colon
  GI50: 12.6 µM
  TGI: 37.9 µM
T-47D breast
  GI50: 3.78 µM
  TGI: 62.3 µM
SF-295 CNS
  GI50: 5.85 µM
  TGI: 37 µM
MCF7 breast
  GI50: 1.86 µM
  TGI: 4.62 µM
NCI-H460 lung
  GI50: 40.8 µM
  TGI: > 100 µM
SK-MEL-2 melanoma
  GI50: 11.2 µM
  TGI: 55.4 µM
HOP-92 NSCLC
  GI50: 6.54 µM
  TGI: > 100 µM
BT-549 breast
  GI50: 13.1 µM
  TGI: 28.7 µM
DU-145 prostate
  GI50: 25 µM
  TGI: > 100 µM
SK-MEL-5 melanoma
  GI50: 3.91 µM
  TGI: 15 µM
OVCAR-8 ovarian
  GI50: 36 µM
  TGI: > 100 µM
SN12C renal
  GI50: 27.7 µM
  TGI: > 100 µM
IGROV1 ovarian
  GI50: 22.5 µM
  TGI: 86.3 µM
OVCAR-5 ovarian
  GI50: > 100 µM
  TGI: > 100 µM
K-562 leukemia
  GI50: 3.37 µM
  TGI: > 100 µM
SNB-75 CNS
  GI50: 2.69 µM
  TGI: > 100 µM
UO-31 renal
  GI50: 5.28 µM
  TGI: 23.1 µM
SR leukemia
  GI50: 6.09 µM
  TGI: 92.4 µM
HL-60(TB) leukemia
  GI50: 12.7 µM
  TGI: > 100 µM
NCI/ADR-RES ovarian
  GI50: 32.2 µM
  TGI: > 100 µM
M14 melanoma
  GI50: 12 µM
  TGI: 37.5 µM
U251 CNS
  GI50: 6.65 µM
  TGI: 19.9 µM
MDA-MB-435
  GI50: 3.08 µM
  TGI: 10.6 µM
SNB-19 CNS
  GI50: 20 µM
  TGI: > 100 µM
MOLT-4 leukemia
  GI50: 4.37 µM
  TGI: > 100 µM
ACHN renal
  GI50: 11.6 µM
  TGI: > 100 µM
SW-620 colon
  GI50: 8.21 µM
  TGI: 25.5 µM
NCI-H226 lung
  GI50: 7.06 µM
  TGI: 30.6 µM
OVCAR-3 ovarian
  GI50: 9.93 µM
  TGI: 56.4 µM
MALME-3M melanoma
  GI50: 50.6 µM
  TGI: > 100 µM
UACC-257 melanoma
  GI50: 20.5 µM
  TGI: 88.7 µM
A498 renal
  GI50: 16.7 µM
  TGI: 38.5 µM
COLO 205 colon
  GI50: 17.6 µM
  TGI: 38.2 µM
MDA-MB-231 breast
  GI50: 11.3 µM
  TGI: 42.9 µM
NCI-H23 lung
  GI50: 14.4 µM
  TGI: 29.8 µM
HCT-116 colon
  GI50: 1.89 µM
  TGI: 3.99 µM
HCT-15 colon
  GI50: 2.37 µM
  TGI: 5.53 µM
CCRF-CEM leukemia
  GI50: 5.58 µM
  TGI: > 100 µM
OVCAR-4 ovarian
  GI50: 7.07 µM
  TGI: > 100 µM
HOP-62 NSCLC
  GI50: 47.5 µM
  TGI: > 100 µM
HS 578T breast
  GI50: 9.05 µM
  TGI: > 100 µM
SF-539 CNS
  GI50: 11.8 µM
  TGI: 24.6 µM
EKVX NSCLC
  GI50: 10.7 µM
  TGI: > 100 µM
RXF 393 renal
  GI50: 3.93 µM
  TGI: 17.9 µM

## COc1ccc(/C=C/c2nc3ccccc3c(=O)n2CC(=O)Nc2ccccc2)cc1
HCC-2998 colon
  GI50: > 100 µM
  TGI: > 100 µM
SK-OV-3 ovarian
  GI50: 2.98 µM
  TGI: 18.7 µM
TK-10 renal
  GI50: 2.05 µM
  TGI: 5.43 µM
A549 NSCLC
  GI50: 0.731 µM
  TGI: > 42.7 µM
HT29 colon
  GI50: > 100 µM
  TGI: > 100 µM
SF-268 CNS
  GI50: 19.1 µM
  TGI: > 100 µM
SK-MEL-28 melanoma
  GI50: > 100 µM
  TGI: > 100 µM
LOX IMVI melanoma
  GI50: 4.38 µM
  TGI: > 100 µM
CAKI-1 renal
  GI50: 1.7 µM
  TGI: > 23.9 µM
UACC-62 melanoma
  GI50: > 62.4 µM
  TGI: > 100 µM
PC-3 prostate
  GI50: > 100 µM
  TGI: > 100 µM
NCI-H522 lung
  GI50: 16.8 µM
  TGI: > 100 µM
786-0 renal
  GI50: 1.19 µM
  TGI: 3.18 µM
RPMI-8226 leukemia
  GI50: > 100 µM
  TGI: > 100 µM
MDA-MB-468 breast
  GI50: 6.23 µM
  TGI: > 53.7 µM
KM12 colon
  GI50: > 100 µM
  TGI: > 100 µM
T-47D breast
  GI50: 1.8 µM
  TGI: > 28.9 µM
SF-295 CNS
  GI50: 2.48 µM
  TGI: 30.8 µM
MCF7 breast
  GI50: > 26 µM
  TGI: > 100 µM
NCI-H460 lung
  GI50: 2.25 µM
  TGI: > 100 µM
SK-MEL-2 melanoma
  GI50: > 77.8 µM
  TGI: > 100 µM
HOP-92 NSCLC
  GI50: 2.78 µM
  TGI: 13.3 µM
BT-549 breast
  GI50: > 74.6 µM
  TGI: > 100 µM
DU-145 prostate
  GI50: > 100 µM
  TGI: > 100 µM
SK-MEL-5 melanoma
  GI50: > 91.4 µM
  TGI: > 100 µM
OVCAR-8 ovarian
  GI50: 4.74 µM
  TGI: > 100 µM
SN12C renal
  GI50: 1.82 µM
  TGI: > 36.6 µM
IGROV1 ovarian
  GI50: 12.6 µM
  TGI: > 100 µM
OVCAR-5 ovarian
  GI50: 6.47 µM
  TGI: > 100 µM
K-562 leukemia
  GI50: > 100 µM
  TGI: > 100 µM
SNB-75 CNS
  GI50: 1.27 µM
  TGI: 4.97 µM
UO-31 renal
  GI50: 1.44 µM
  TGI: 3.64 µM
SR leukemia
  GI50: > 100 µM
  TGI: > 100 µM
HL-60(TB) leukemia
  GI50: > 100 µM
  TGI: > 100 µM
NCI/ADR-RES ovarian
  GI50: 4.64 µM
  TGI: > 100 µM
M14 melanoma
  GI50: 27 µM
  TGI: > 51 µM
U251 CNS
  GI50: 0.972 µM
  TGI: 10.9 µM
MDA-MB-435
  GI50: > 93.4 µM
  TGI: > 100 µM
SNB-19 CNS
  GI50: 3.74 µM
  TGI: > 73.9 µM
MOLT-4 leukemia
  GI50: > 100 µM
  TGI: > 100 µM
ACHN renal
  GI50: 0.718 µM
  TGI: 2.49 µM
SW-620 colon
  GI50: > 21.3 µM
  TGI: > 100 µM
NCI-H226 lung
  GI50: 2.42 µM
  TGI: 16.4 µM
OVCAR-3 ovarian
  GI50: 3.91 µM
  TGI: > 100 µM
MALME-3M melanoma
  GI50: 5.2 µM
  TGI: 55.9 µM
UACC-257 melanoma
  GI50: > 85.1 µM
  TGI: > 100 µM
A498 renal
  GI50: 2.23 µM
  TGI: 5.2 µM
COLO 205 colon
  GI50: > 37.3 µM
  TGI: > 77.7 µM
MDA-MB-231 breast
  GI50: 2.01 µM
  TGI: 7.54 µM
NCI-H23 lung
  GI50: 6.01 µM
  TGI: > 62.4 µM
HCT-116 colon
  GI50: 1.26 µM
  TGI: > 39.4 µM
HCT-15 colon
  GI50: > 100 µM
  TGI: > 100 µM
CCRF-CEM leukemia
  GI50: > 100 µM
  TGI: > 100 µM
OVCAR-4 ovarian
  GI50: 0.734 µM
HOP-62 NSCLC
  GI50: 4.31 µM
  TGI: 19.2 µM
HS 578T breast
  GI50: 2.79 µM
  TGI: > 92.5 µM
SF-539 CNS
  GI50: 3.42 µM
  TGI: 14.5 µM
EKVX NSCLC
  GI50: > 69.4 µM
  TGI: > 100 µM
RXF 393 renal
  GI50: 2.23 µM
  TGI: 10.6 µM
